Laboratory results published in ChEMBL document CHEMBL4196204, “Sulfonic Acid-Containing Flavonoids from the Roots of Phyllanthus acidus” (J Nat Prod, 2018).
The source made the active and inactive calls. No cut-off for these calls is given here.

Key:
MCF7 = assay: Antiproliferative activity against human MCF7 cells by MTT assay; type: functional, cell-based
HepG2 = assay: Antiproliferative activity against human HepG2 cells by MTT assay; type: functional, cell-based

COc1c(O)c2c(c(S(=O)(=O)O)c1O)OC(c1ccc(O)cc1)CC2=O (racemic)
Activity (MCF7): inactive
Activity (HepG2): inactive
